Values quoted from earlier work in US20060034872A1, “Compositions and methods for preventing abuse of orally administered medications” (priority 2002, published 2006).

Assays:
[1] = target: T1, VR1 receptors of nociceptive afferent neurons (Homo sapiens, UniProt Q8NER1); details: for sensation elicited by application: applied to skin, oral or nasal mucosa, or subdermal tissue
T1 construct: selective stimulation of the VR1 receptors of nociceptive afferent neurons; from tissue; host or cells: nociceptive afferent neurons in vivo (skin, oral/nasal mucosa, airways, paravenous tissue)

[2] = target: T1, VR1 receptors of nociceptive afferent neurons; details: ingestion; as little as
[3] = target: T1, VR1 receptors of nociceptive afferent neurons; details: nasal instillation
[4] = target: T2, bronchial VR1 (Homo sapiens, UniProt Q8NER1); details: inhaled, 10^−3-10^−8M solutions
T2 construct: selective stimulation of the VR1 receptors of nociceptive afferent neurons; from tissue; host or cells: nociceptive afferent neurons in vivo (skin, oral/nasal mucosa, airways, paravenous tissue)

[5] = target: T3, VR1 receptors (Homo sapiens, UniProt Q8NER1)
T3 construct: selective stimulation of the VR1 receptors of nociceptive afferent neurons; from tissue; host or cells: nociceptive afferent neurons in vivo (skin, oral/nasal mucosa, airways, paravenous tissue)

[6] = target: T4, peripheral VR1 receptors (Homo sapiens, UniProt Q8NER1)
T4 construct: from tissue

[7] = repeated intravesical instillation, 1-2 mM, over five years
[8] = long term intranasal, 0.15 mg per nostril every 2-3 days, total dose 1.05 mg
[9] = not given; remark: listed apart in the source

T3 sequence (Q8NER1 whole entry): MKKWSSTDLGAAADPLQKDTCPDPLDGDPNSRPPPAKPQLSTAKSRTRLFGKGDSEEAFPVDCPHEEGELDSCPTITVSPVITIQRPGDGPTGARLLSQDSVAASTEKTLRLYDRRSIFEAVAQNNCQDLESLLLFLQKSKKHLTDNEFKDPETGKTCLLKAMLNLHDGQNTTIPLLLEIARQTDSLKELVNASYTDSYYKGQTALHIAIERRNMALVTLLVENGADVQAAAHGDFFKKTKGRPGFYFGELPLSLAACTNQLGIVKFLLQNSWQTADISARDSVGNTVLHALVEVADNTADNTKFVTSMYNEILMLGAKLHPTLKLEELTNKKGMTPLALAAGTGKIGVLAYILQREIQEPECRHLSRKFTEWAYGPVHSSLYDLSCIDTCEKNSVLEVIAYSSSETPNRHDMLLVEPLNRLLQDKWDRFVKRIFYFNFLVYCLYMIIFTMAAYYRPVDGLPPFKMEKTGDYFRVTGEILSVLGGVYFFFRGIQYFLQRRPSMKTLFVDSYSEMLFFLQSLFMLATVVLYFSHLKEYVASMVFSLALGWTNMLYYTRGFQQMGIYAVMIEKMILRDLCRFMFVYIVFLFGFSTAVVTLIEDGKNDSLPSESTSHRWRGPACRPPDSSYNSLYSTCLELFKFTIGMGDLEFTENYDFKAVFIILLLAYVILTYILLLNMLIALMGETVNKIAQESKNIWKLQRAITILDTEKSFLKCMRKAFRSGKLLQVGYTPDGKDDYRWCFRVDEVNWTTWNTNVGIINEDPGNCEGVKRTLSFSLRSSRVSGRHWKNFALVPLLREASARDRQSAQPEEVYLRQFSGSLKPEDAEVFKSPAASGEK
T1 sequence (Q8NER1 whole entry): as above
T4 sequence (Q8NER1 whole entry): as above
T2 sequence (Q8NER1 whole entry): as above

SMILES: COc1cc(CNC(=O)CCCC/C=C/C(C)C)ccc1O [capsaicin]
- sensation elicited by application [1]: burning pain
- sensation following application of dermal cream ([1]; dermal cream containing 0.075% capsaicin): burning pain sensation
- amount ingested after which tongue and throat irritation occurs [2]: 3 ppm
- amount instilled giving nasal irritation and rhinorrhea [3]: 75 to 150 µg
- immediate effect of inhalation [4]: sneezing, coughing, and airway constriction
- pain when injected directly into a vein ([5]; injected directly into a vein, up to 650 μM): does not cause pain
- pain when injected intradermally ([5]; intradermal injection): very severe pain
- low capsaicin doses to which paravenous tissue is highly sensitive ([5]; paravenous tissue): 0.3 to 6.5 µM
- maximum tolerated dose (MTD) ([6]; humans): approximately 4 μg/kg
- dose producing raw, burning sensation in chest, face, rectum and extremities ([6]; injection directly into the superior vena cava): > 0.5 µg/kg
- pathological tissue changes [7]: did not result in pathological tissue changes
- histological abnormalities [8]: no histological abnormalities
- absorption from the gastrointestinal tract (oral administration): readily absorbed
- metabolism in the liver (oral administration): almost completely metabolized

SMILES: CCCCCCCC/C=C\CCCCCCCC(=O)NCc1ccc(O)c(OC)c1 [olvanil]
- first pass metabolism (in vivo): subject to first pass metabolism

SMILES: COc1ccc2c3c1O[C@H]1C(=O)CC[C@@]4(O)[C@@H](C2)N(C)CC[C@]314 [oxycodone]
- biological and therapeutic half-lives ([9]; in vivo): very short
- bioavailability ([9]; oral and intranasal administration): high

SMILES: C=C(C)[C@]12C[C@@H](C)[C@@]34O[C@](Cc5ccccc5)(O[C@@H]1[C@@H]3C=C(COC(=O)Cc1ccc(O)c(OC)c1)C[C@]1(O)C(=O)C(C)=C[C@@H]41)O2 [resiniferatoxin]
- sensation elicited by application [1]: burning pain
